According to the supplement of paper PMC10307832:

Key:
Experiment in all cases: relative viability (nuclei count vs DMSO), 5 days (fraction); higher = more cells survive
[1] = compound: Cc1nc(NC(=O)N2CCC[C@H]2C(N)=O)sc1-c1ccnc(C(C)(C)C(F)(F)F)c1 [Alpelisib] + COc1cccc2cc(-c3nc([C@H]4CC[C@H](C(=O)O)CC4)n4ncnc(N)c34)[nH]c12 [OSI-027] (partner 0.5 µM)
In short: (§1)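 Cells from lung cancer lines were seeded into 1536-well plates and, one day later, dosed by pin tool. Treatments were either a single drug or a fixed dose of an anchor drug with five library-drug doses (not always all listed) in √10 steps. After 5 days, nuclei were stained in a one-step fixation (final 0.05% Triton X-100, 1% formaldehyde, 1 ug/ml Hoechst) and counted on 4× images, and relative viability is the treated-to-vehicle nuclei ratio, as the median of duplicate plates.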

[2] = compound: COc1cccc2cc(-c3nc([C@H]4CC[C@H](C(=O)O)CC4)n4ncnc(N)c34)[nH]c12 [OSI-027] + CC(=O)Nc1cccc(-n2c(=O)n(C3CC3)c(=O)c3c(Nc4ccc(I)cc4F)n(C)c(=O)c(C)c32)c1 [Trametinib] (partner 0.02 µM)
In short: as §1

[3] = compound: COc1cccc2cc(-c3nc([C@H]4CC[C@H](C(=O)O)CC4)n4ncnc(N)c34)[nH]c12 [OSI-027] + C[C@@H](Oc1cc(-c2cnn(C3CCNCC3)c2)cnc1N)c1c(Cl)ccc(F)c1Cl [Crizotinib] (partner 1 µM)
In short: as §1

[4] = compound: CCCS(=O)(=O)Nc1ccc(F)c(C(=O)c2c[nH]c3ncc(-c4ccc(Cl)cc4)cc23)c1F [Vemurafenib] + CS(=O)(=O)N1CCN(Cc2cc3nc(-c4cccc5[nH]ncc45)nc(N4CCOCC4)c3s2)CC1 [Pictilisib] (partner 1 µM)
In short: as §1

| Cell Line | relative viability ([1]; first compound 0.04 µM) | relative viability ([1]; first compound 0.1265 µM) | relative viability ([1]; first compound 0.4 µM) | relative viability ([1]; first compound 1.265 µM) | relative viability ([1]; first compound 4 µM) | relative viability ([2]; first compound 0.01 µM) | relative viability ([2]; first compound 0.03162 µM) | relative viability ([2]; first compound 0.1 µM) | relative viability ([2]; first compound 0.3162 µM) | relative viability ([2]; first compound 1 µM) | relative viability ([3]; first compound 0.01 µM) | relative viability ([3]; first compound 0.03162 µM) | relative viability ([3]; first compound 0.1 µM) | relative viability ([3]; first compound 0.3162 µM) | relative viability ([3]; first compound 1 µM) | relative viability ([4]; first compound 0.03162 µM) | relative viability ([4]; first compound 0.1 µM) | relative viability ([4]; first compound 1 µM) | relative viability ([4]; first compound 0.3162 µM) |
| --- | --- | --- | --- | --- | --- | --- | --- | --- | --- | --- | --- | --- | --- | --- | --- | --- | --- | --- | --- |
| ChaGo-K-1 | 0.543 | 0.592 | 0.49 | 0.394 | 0.342 | 0.919 | 0.903 | 0.833 | 0.882 | 0.661 | 1.38 | 1.02 | 1.2 | 0.997 | 0.922 | 0.657 | 0.587 | 0.625 | – |
| EBC-1 | – | – | – | – | – | – | – | – | – | – | 0.21 | 0.21 | 0.183 | 0.184 | 0.164 | 0.36 | 0.335 | 0.36 | 0.335 |
| EKVX | 0.594 | 0.531 | 0.773 | 0.496 | 0.356 | 0.413 | 0.359 | 0.3 | 0.293 | 0.313 | 0.92 | 0.816 | 1.03 | 0.822 | 0.513 | 0.446 | – | 0.451 | 0.501 |
| EMC-BAC-2 | 0.368 | 0.329 | 0.334 | 0.285 | 0.218 | 0.857 | 0.927 | 0.816 | 0.797 | 0.503 | 0.752 | 0.786 | 0.737 | 0.683 | 0.416 | 0.46 | 0.474 | 0.544 | 0.454 |
| EPLC-272H | 0.214 | 0.268 | 0.274 | 0.23 | 0.195 | 0.293 | 0.278 | 0.254 | 0.236 | 0.239 | 1.05 | 0.872 | 0.944 | 0.697 | 0.787 | 0.277 | 0.278 | 0.336 | 0.295 |
| H3255 | 0.526 | 0.583 | 0.635 | 0.363 | 0.384 | 0.527 | 0.594 | 0.514 | 0.476 | 0.414 | 0.842 | 0.838 | 0.76 | 0.886 | 0.587 | 0.474 | – | 0.452 | 0.48 |
| HARA | 0.396 | 0.287 | 0.48 | 0.255 | 0.164 | 0.719 | 0.616 | 0.556 | 0.398 | 0.386 | 1.07 | 0.85 | 0.999 | 1.09 | 0.407 | 0.41 | – | 0.486 | 0.459 |
| HCC-15 | 0.623 | 0.563 | 0.589 | 0.484 | 0.339 | 0.317 | 0.365 | 0.352 | 0.283 | 0.238 | 0.933 | 0.712 | 0.789 | 0.732 | 0.482 | 0.653 | 0.773 | 0.578 | 0.727 |
| HCC-44 | 0.519 | 0.419 | 0.541 | 0.307 | 0.451 | 1.04 | 1.07 | 1.05 | 0.942 | 0.795 | 0.819 | 0.794 | 0.817 | 0.737 | 0.343 | 0.443 | 0.5 | 0.646 | 0.478 |
